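Cells were grown in 96-well plates and exposed to each compound for 48 hours at five concentrations; endpoints were interpolated linearly between bracketing concentrations, or set to the highest concentration if not reached. GI50 is the concentration that inhibits growth by half.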 Active and inactive are the calls of the source. No stated cut-off is given here; in the data, active = GI50 up to about 1.1 µM and inactive = higher.
What was measured:
Experiment in all cases: growth of human tumour cells (NCI), 48 h
DMS-114 = tested on: DMS-114
NCI-H226 = tested on: NCI-H226
SK-MEL-28 = tested on: SK-MEL-28
DLD-1 = tested on: DLD-1
A498 = tested on: A498
K562 = tested on: K562
SF-539 = tested on: SF-539
SNB-19 = tested on: SNB-19
MOLT-4 = tested on: MOLT-4
SF-268 = tested on: SF-268
OVCAR-4 = tested on: OVCAR-4
SK-OV-3 = tested on: SK-OV-3
XF498 = tested on: XF498
DMS-273 = tested on: DMS-273
OVCAR-8 = tested on: OVCAR-8
M14 = tested on: M14
HCT-116 = tested on: HCT-116
HCT-15 = tested on: HCT-15
CAKI-1 = tested on: CAKI-1
M19-MEL = tested on: M19-MEL
NCI-H23 = tested on: NCI-H23
CCRF-CEM = tested on: CCRF-CEM
NCI-H460 = tested on: NCI-H460
HT-29 = tested on: HT-29
SNB-75 = tested on: SNB-75
NCI-H522 = tested on: NCI-H522
EKVX = tested on: EKVX
UACC-257 = tested on: UACC-257
ACHN = tested on: ACHN
OVCAR-5 = tested on: OVCAR-5
U-251 = tested on: U-251
SF-295 = tested on: SF-295
SK-MEL-2 = tested on: SK-MEL-2
SW-620 = tested on: SW-620
A549 = tested on: A549
RPMI-8226 = tested on: RPMI-8226
SN12C = tested on: SN12C
IGROV-1 = tested on: IGROV-1
SR = tested on: SR
UO-31 = tested on: UO-31
TK-10 = tested on: TK-10
OVCAR-3 = tested on: OVCAR-3
HOP-62 = tested on: HOP-62
RXF 393 = tested on: RXF 393
HCC 2998 = tested on: HCC 2998
SK-MEL-5 = tested on: SK-MEL-5
HOP-92 = tested on: HOP-92
Malme-3M = tested on: Malme-3M
COLO 205 = tested on: COLO 205
HL-60 = tested on: HL-60
KM12 = tested on: KM12
KM-20L2 = tested on: KM-20L2
LXFL 529 = tested on: LXFL 529
SNB-78 = tested on: SNB-78
UACC-62 = tested on: UACC-62

SMILES: NCCCCNCCCNC(=O)c1nc(-c2csc(CCN)n2)sc1Cl
- GI50 (DMS-114): > 100 µM (inactive)
- GI50 (NCI-H226): > 100 µM (inactive)
- GI50 (SK-MEL-28): > 100 µM (inactive)
- GI50 (DLD-1): > 100 µM (inactive)
- GI50 (A498): > 100 µM (inactive)
- GI50 (K562): 49.5 µM (inactive)
- GI50 (SF-539): > 100 µM (inactive)
- GI50 (SNB-19): > 100 µM (inactive)
- GI50 (MOLT-4): > 100 µM (inactive)
- GI50 (SF-268): 62.7 µM (inactive)
- GI50 (OVCAR-4): > 100 µM (inactive)
- GI50 (SK-OV-3): > 100 µM (inactive)
- GI50 (XF498): > 100 µM (inactive)
- GI50 (DMS-273): > 100 µM (inactive)
- GI50 (OVCAR-8): > 100 µM (inactive)
- GI50 (M14): > 100 µM (inactive)
- GI50 (HCT-116): > 100 µM (inactive)
- GI50 (HCT-15): > 100 µM
- GI50 (CAKI-1): > 100 µM (inactive)
- GI50 (M19-MEL): > 100 µM (inactive)
- GI50 (NCI-H23): > 100 µM (inactive)
- GI50 (CCRF-CEM): > 100 µM (inactive)
- GI50 (NCI-H460): > 100 µM (inactive)
- GI50 (HT-29): > 100 µM (inactive)
- GI50 (SNB-75): > 100 µM (inactive)
- GI50 (NCI-H522): > 100 µM (inactive)
- GI50 (EKVX): > 100 µM (inactive)
- GI50 (UACC-257): > 100 µM (inactive)
- GI50 (ACHN): > 100 µM (inactive)
- GI50 (OVCAR-5): > 100 µM (inactive)
- GI50 (U-251): > 100 µM (inactive)
- GI50 (SF-295): > 100 µM (inactive)
- GI50 (SK-MEL-2): > 100 µM (inactive)
- GI50 (SW-620): > 100 µM (inactive)
- GI50 (A549): > 100 µM (inactive)
- GI50 (RPMI-8226): > 100 µM (inactive)
- GI50 (SN12C): > 100 µM (inactive)
- GI50 (IGROV-1): > 100 µM (inactive)
- GI50 (SR): > 100 µM (inactive)
- GI50 (UO-31): > 100 µM (inactive)
- GI50 (TK-10): > 100 µM (inactive)
- GI50 (OVCAR-3): > 100 µM (inactive)
- GI50 (HOP-62): > 100 µM (inactive)
- GI50 (RXF 393): > 100 µM (inactive)
- GI50 (HCC 2998): > 100 µM (inactive)
- GI50 (SK-MEL-5): > 100 µM (inactive)
- GI50 (HOP-92): > 100 µM (inactive)
- GI50 (Malme-3M): > 100 µM (inactive)
- GI50 (COLO 205): > 100 µM (inactive)
- GI50 (HL-60): > 100 µM (inactive)
- GI50 (KM12): > 100 µM (inactive)
- GI50 (KM-20L2): > 100 µM (inactive)
- GI50 (LXFL 529): 17.9 µM (inactive)
- GI50 (SNB-78): > 100 µM (inactive)
- GI50 (UACC-62): > 100 µM (inactive)

From ChEMBL document CHEMBL1201862, “PubChem BioAssay data set” (2004)
